Test [1] deals with HT1080 xenografted mice (IDH1R132C). The test can be described thus: 2-HG production inhibitory activity using HT1080 xenografted mice. The format is in vivo, mouse. The note with it: 2-HG production, HT1080 xenografted mice. On the procedure: HT1080 xenografted mice having successfully engrafted tumors were given by oral gavage each compound at 75 mg/kg a total of three times twice a day. The compound was suspended in a vehicle solution at 7.5 mg/mL using a homogenizer. Then, the suspension was stored at −20° C., thawed immediately before the administration, and given to mice. A negative control group for the test was given a vehicle by oral gavage. The body weights of the mice were measured using an automatic balance for small animals. The dosing solution was administered at a dose of 10 mL/kg body weight.
6 hours after the final administration, each mouse was euthanized with carbon dioxide. A portion of a tumor was collected, and its weight was measured using an electronic balance. Then, the tumor was frozen on dry ice. To the frozen tumor, methanol was added in an amount of 14 times the tumor weight. The resulting tumor was homogenized with Beads shocker (Yasui Kikai Corp.) and then incubated for 15 minutes in a freezer at −20° C. After centrifugation at 15000 rpm at 4° C. for 15 minutes using a high-speed refrigerated microcentrifuge, 250 μL of methanol and 400 μL of ultrapure water were added to 150 μL of the obtained supernatant. The prepared samples were subjected to 2-HG measurement.

For the next test, the target named is IDH1R132C (Homo sapiens (Human), UniProt O75874, R132C). Briefly: Inhibitory activity against IDH1R132C enzyme (NADPH detection, WST-8). Type of test: biochemical. The note with it: 10 nM, residual NADPH detected with WST-8, read-out: Test Example 1 IDH1 R132C IC50. On the procedure: After transformation of Rosetta 2 (DE3) E. coli, the expression of the protein was induced with IPTG.
While NADPH-derived fluorescence was occasionally monitored, the reaction was terminated by the addition of 5 μL of 0.5 M EDTA before consumption of NADPH. 5 μL of WST-8 reagent (Dojindo Laboratories, #CK04) was further added and mixed therewith. 15 minutes later, the absorbance at 450 nm was measured using a plate reader (PerkinElmer, Inc., EnVision). The observed absorbance value reflects the amount of residual NADPH. From the absorbance data, the enzyme inhibitory activity of each compound at each concentration was calculated and analyzed using medical statistical analysis software GraphPad Prism to calculate an IC50 value.

Test [2] deals with HT-1080 cells expressing IDH1R132C. Briefly: 2-HG production inhibitory activity using HT1080 cell. The format is cell-based, human. The following applies: Homo sapiens. On the procedure: Then, 100 μL of growth medium B was added to each well, further 25 μL of a solution of each compound diluted to a predetermined concentration with growth medium B was added to each well, and the cells were incubated at 37° C. for 2 days under 5% CO2. […] Then, 150 μL of ultrapure water was further added to each well, and the mixture was stirred by pipetting and stored at −20° C.
The preserved solutions were thawed at room temperature.

Setting [3] is: HT-1080, 2-HG production, HT1080 cells, read-out: Test Example 3 IC50.

Where a name gives a salt, the structure may show the parent alone. Read-outs that look alike come from different tables or passages of the source. Some results are limits rather than exact numbers.

The record followed here is patent publication US10040791B2, “Isoxazole derivative as mutant isocitrate dehydrogenase 1 inhibitor” (Daiichi Sankyo Company, Limited, priority 2014, dated 2018).

Chain of IDH1R132C (O75874 whole entry R132C): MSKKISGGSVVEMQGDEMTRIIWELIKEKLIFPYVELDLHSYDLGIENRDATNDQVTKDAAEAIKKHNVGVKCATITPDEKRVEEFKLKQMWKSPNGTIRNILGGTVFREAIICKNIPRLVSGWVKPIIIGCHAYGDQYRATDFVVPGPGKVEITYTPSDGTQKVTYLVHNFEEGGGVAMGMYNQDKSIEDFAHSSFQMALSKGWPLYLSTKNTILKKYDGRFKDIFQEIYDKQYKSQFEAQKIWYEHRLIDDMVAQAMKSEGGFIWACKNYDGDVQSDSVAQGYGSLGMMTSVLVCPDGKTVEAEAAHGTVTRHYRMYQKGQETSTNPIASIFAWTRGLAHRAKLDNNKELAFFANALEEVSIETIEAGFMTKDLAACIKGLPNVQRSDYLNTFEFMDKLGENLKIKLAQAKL

For `Cc1cn(C(=O)c2c(-c3c(Cl)cc(Cl)cc3Cl)noc2C(C)(C)F)c2cccc(/C=C/C(=O)O)c12` [Example 168, (2E)-3-(1-{[5-(2-Fluoropropan-2-yl)-3-(2,4,6-trichlorophenyl)-1,2-oxazol-4-yl]carbonyl}-3-methyl-1H-indol-4-yl)prop-2-enoic acid tert-butylamine salt], in test [1] (Mus musculus, HT-1080, po, 6 h, read-out: Test Example 5 Ratio (%)), the response vs control in vivo at 75 mg/kg amounted to 13%.

On to `Cc1cc(Cl)cc(Cl)c1-c1noc(C(C)(C)F)c1C(=O)n1cc(C)c2c(/C=C/C(=O)O)cccc21` [Example 172, (2E)-3-(1-{[3-(2,4-Dichloro-6-methylphenyl)-5-(2-fluoropropan-2-yl)-1,2-oxazol-4-yl]carbonyl}-3-methyl-1H-indol-4-yl)prop-2-enoic acid tert-butylamine salt], for which, in test [1], the “Test Example 5 Ratio (%)” value worked out at 8%.

In the case of `Cc1cc(Cl)cc(C)c1-c1noc(C(C)(C)F)c1C(=O)n1cc(C)c2c(/C=C/C(=O)O)cccc21` [Example 171, (2E)-3-(1-{[3-(4-Chloro-2,6-dimethylphenyl)-5-(2-fluoropropan-2-yl)-1,2-oxazol-4-yl]carbonyl}-3-methyl-1H-indol-4-yl)prop-2-enoic acid tert-butylamine salt], the “Test Example 5 Ratio (%)” value in test [1] stood at 22%.

As to `Cc1cn(C(=O)c2c(-c3c(F)cc(Cl)cc3Cl)noc2C(C)(C)F)c2cccc(/C=C/C(=O)O)c12` [Example 169, (2E)-3-(1-{[3-(2,4-Dichloro-6-fluorophenyl)-5-(2-fluoropropan-2-yl)-1,2-oxazol-4-yl]carbonyl}-3-methyl-1H-indol-4-yl)prop-2-enoic acid tert-butylamine salt], the “Test Example 5 Ratio (%)” value in test [1] was determined as 17%. On to `CN(C)C1(c2onc(-c3c(Cl)cc(Cl)cc3Cl)c2C(=O)n2cc3c4c(cccc42)/C(=C/C(=O)O)CC3)CC1` [Example 92], for which the 50% inhibitory concentration (IC50) (in general, the midpoint of a concentration-inhibition curve) came to 80 nM on IDH1R132C and 9 nM in test [2] (setting [3]).

As for `CC(C)c1onc(-c2c(Cl)cc(Cl)cc2Cl)c1C(=O)n1ccc2c(/C=C/C(=O)O)cccc21` [Example 26, (2E)-3-(1-{[5-(Propan-2-yl)-3-(2,4,6-Trichlorophenyl)-1,2-oxazol-4-yl]carbonyl}-1H-indol-4-yl)prop-2-enoic acid], the IC50 stood at 253 nM on IDH1R132C and 248 nM in test [2] (setting [3]). Consider `COCC1(c2onc(-c3c(Cl)cc(Cl)cc3Cl)c2C(=O)n2cc(C)c3c(/C=C/C(=O)O)cccc32)CCC1` [Example 80, (2E)-3-(1-{[5-[1-(Methoxymethyl)cyclobutyl]-3-(2,4,6-trichlorophenyl)-1,2-oxazol-4-yl]carbonyl}-3-methyl-1H-indol-4-yl)prop-2-enoic acid], for which the IC50 on IDH1R132C was determined as 335 nM; in test [2] (setting [3]), 99 nM.

Consider `C=CC(=O)N1CCC(c2onc(-c3ccc(Cl)c(F)c3Cl)c2C(=O)n2cc(C)c3c(/C=C/C(=O)O)cccc32)CC1` [Example 129], for which the results for the IC50 (at IDH1R132C; in test [2] (setting [3])) were 182 nM and 10 nM, respectively.

Regarding `Cn1cc(C(=O)c2c(-c3c(Cl)cc(Cl)cc3Cl)noc2C2(C)CC2)c2cccc(/C=C/C(=O)O)c21` [Example 165], the values for the concentration for half-maximal inhibition (IC50) (on IDH1R132C; in test [2] (setting [3])) were 81 nM and 186 nM, respectively.

On to `C=CC(=O)N1CCC(O)(c2onc(-c3c(Cl)cc(Cl)cc3Cl)c2C(=O)n2cc(C)c3c(/C=C/C(=O)O)cccc32)CC1` [Example 123], for which the IC50 at IDH1R132C was 149 nM; in test [2] (setting [3]), 13 nM.

Take `CNC1(c2onc(-c3c(Cl)cc(Cl)cc3Cl)c2C(=O)n2cc3c4c(cccc42)/C(=C/C(=O)O)CC3)CC1` [Example 86, (2E)-[1-({5-[1-(Methylamino)cyclopropyl]-3-(2,4,6-trichlorophenyl)-1,2-oxazol-4-yl}carbonyl)-3,4-dihydrobenzo[cd]indol-5(1H)-ylidene]ethanoic acid]: the 50% inhibitory concentration (IC50) on IDH1R132C was found to be 79 nM; in test [2] (setting [3]), 33 nM. For the compound `COC1(c2onc(-c3c(F)cc(Cl)cc3Cl)c2C(=O)n2cc3c4c(cccc42)/C(=C/C(=O)O)CC3)CCC1` [Example 15, (2E)-[1-{[3-(2,4-Dichloro-6-fluorophenyl)-5-(1-methoxycyclobutyl)-1,2-oxazol-4-yl]carbonyl}-3,4-dihydrobenzo[cd]indol-5(1H)-ylidene]ethanoic acid], the figures for the 50% inhibitory concentration (IC50) (on IDH1R132C; in test [2] (setting [3])) were 106 nM and 37 nM, respectively. The like results for `CN(C)c1onc(-c2c(Cl)cc(Cl)cc2Cl)c1C(=O)n1ccc2c(/C=C/C(=O)O)cccc21` [Example 138] were, in that order, 88 nM and 288 nM.

As for `CC(=O)c1cn(C(=O)c2c(-c3c(Cl)cc(Cl)cc3Cl)noc2C(C)(C)F)c2cccc(/C=C/C(=O)O)c12` [Example 64, (2E)-3-(3-Acetyl-1-{[5-(2-fluoropropan-2-yl)-3-(2,4,6-trichlorophenyl)-1,2-oxazol-4-yl]carbonyl}-1H-indol-4-yl)prop-2-enoic acid], the IC50 was 888 nM on IDH1R132C and above 2000 nM in test [2] (setting [3]). The like results for `Cc1cn(C(=O)c2c(-c3c(Cl)cc(Cl)cc3Cl)noc2C2(C(=O)N(C)C)CCC2)c2cccc(/C=C/C(=O)O)c12` [Example 89, (2E)-3-(1-{[5-[1-(Dimethylcarbamoyl)cyclobutyl]-3-(2,4,6-trichlorophenyl)-1,2-oxazol-4-yl]carbonyl}-3-methyl-1H-indol-4-yl)prop-2-enoic acid] were, in that order, 185 nM and 37 nM. The like results for `C=CC(=O)N1CCC(c2onc(-c3c(Cl)cccc3Cl)c2C(=O)n2ccc3c(/C=C/C(=O)O)cccc32)CC1` [Example 102] were, in that order, 117 nM and 50 nM.

Regarding `O=C(O)/C=C/c1cccc2c1ccn2C(=O)c1c(-c2c(Cl)cccc2Cl)noc1N1CCOCC1` [Example 136, (2E)-3-(1-{[3-(2,6-Dichlorophenyl)-5-(morpholin-4-yl)-1,2-oxazol-4-yl]carbonyl}-1H-indol-4-yl)prop-2-enoic acid], the IC50 on IDH1R132C was determined as 140 nM; in test [2] (setting [3]) it was 335 nM.

`COC(C)(C)c1onc(-c2c(Cl)cccc2Cl)c1C(=O)n1ccc2c(/C=C/C(=O)O)cccc21` [Example 27, (2E)-3-(1-{[3-(2,6-Dichlorophenyl)-5-(2-methoxypropan-2-yl)-1,2-oxazol-4-yl]carbonyl}-1H-indol-4-yl)prop-2-enoic acid]: the IC50 on IDH1R132C is 160 nM; in test [2] (setting [3]), 128 nM. As for `CC1(c2onc(-c3c(Cl)cccc3Cl)c2C(=O)n2ccc3c(/C=C/C(=O)O)cccc32)COC1` [Example 75, (2E)-3-(1-{[3-(2,6-Dichlorophenyl)-5-(3-methyloxetan-3-yl)-1,2-oxazol-4-yl]carbonyl}-1H-indol-4-yl)prop-2-enoic acid], the half-maximal inhibitory concentration (IC50) is 118 nM at IDH1R132C and 138 nM in test [2] (setting [3]). For `C#CC(=O)N1CC(c2onc(-c3c(Cl)cc(Cl)cc3Cl)c2C(=O)n2ccc3c(/C=C/C(=O)O)cccc32)C1` [Example 101], the IC50 at IDH1R132C turned out to be 189 nM; in test [2] (setting [3]), 32 nM. The like results for `CC(C)(O)c1onc(-c2c(Cl)cccc2Cl)c1C(=O)n1ccc2c(/C=C/C(=O)O)cccc21` [Example 7, (2E)-3-(1-{[3-(2,6-Dichlorophenyl)-5-(2-hydroxypropan-2-yl)-1,2-oxazol-4-yl]carbonyl}-1H-indol-4-yl)prop-2-enoic acid] were, in that order, 152 nM and 787 nM.

Regarding `C=Cc1ccc(-c2onc(-c3c(Cl)cc(Cl)cc3Cl)c2C(=O)n2ccc3c(/C=C/C(=O)O)cccc32)cn1` [Example 73, (2E)-3-(1-{[5-(6-Ethenylpyridin-3-yl)-3-(2,4,6-trichlorophenyl)-1,2-oxazol-4-yl]carbonyl}-1H-indol-4-yl)prop-2-enoic acid], the IC50 is 208 nM on IDH1R132C and 7 nM in test [2] (HT-1080, read-out: Test Example 3 IC50 (nM)). Take `CC(C)(F)c1onc(-c2c(Cl)cc(Cl)cc2Cl)c1C(=O)n1cc(F)c2c(/C=C/C(=O)O)cccc21` [Example 45, (2E)-3-(3-Fluoro-1-{[5-(2-fluoropropan-2-yl)-3-(2,4,6-trichlorophenyl)-1,2-oxazol-4-yl]carbonyl}-1H-indol-4-yl)prop-2-enoic acid]: the IC50 was 114 nM on IDH1R132C and 60 nM in test [2] (setting [3]). For `COC1(c2onc(-c3c(Cl)cccc3Cl)c2C(=O)n2ccc3c(/C=C/C(=O)O)cccc32)COC1` [Example 76, (2E)-3-(1-{[3-(2,6-Dichlorophenyl)-5-(3-methoxyoxetan-3-yl)-1,2-oxazol-4-yl]carbonyl}-1H-indol-4-yl)prop-2-enoic acid], the figures for the IC50 (at IDH1R132C; in test [2] (setting [3])) were 94 nM and 118 nM, respectively.
